Here are results for one compound from ChEMBL document CHEMBL4350983, “Combining structure- and property-based optimization to identify selective FLT3-ITD inhibitors with good antitumor efficacy in AML cell inoculated mouse xenograft model” (Eur J Med Chem, 2019).

Structures are written as SMILES.

Series [1] in a line: in vitro. Conditions: rat, liver microsomes.
The conditions of series [2]: human, microsomes, 0.25 h, 1 µM.
Series [3] is described as follows: Apparent volume of distribution in Sprague-Dawley rat at 1 mg/kg, iv measured up to 24 hrs by LC-MS/MS analysis. The class given is ADME, organism-based. The conditions noted are these: in vivo, read-out: Vz.
For series [4] the following is noted: rat, microsomes, 0.25 h, 1 µM.
Series [5] in a line: Mean residence time (0 to t) in Sprague-Dawley rat at 5 mg/kg, po measured up to 24 hrs by LC-MS/MS analysis. The class given is ADME, organism-based. The conditions noted are these: in vivo.
A short description of series [6]: Half-life in Sprague-Dawley rat at 5 mg/kg, po measured up to 24 hrs by LC-MS/MS analysis. It is filed as ADME, organism-based. The conditions noted are these: in vivo.
Series [7] can be described thus: AUCt in Sprague-Dawley rat at 1 mg/kg, iv measured up to 24 hrs by LC-MS/MS analysis. The class given is ADME, organism-based. On the set-up: dose 1 mg/kg, time < 24 hr, route intravenous. Conditions: in vivo.
Series [8] is described as follows: AUC (0 to infinity) in Sprague-Dawley rat at 1 mg/kg, iv measured up to 24 hrs by LC-MS/MS analysis. The class given is ADME, organism-based. On the set-up: dose 1 mg/kg, time infinity, route intravenous. Conditions: in vivo.
The nature of series [9]: Tmax in Sprague-Dawley rat at 5 mg/kg, po measured up to 24 hrs by LC-MS/MS analysis. The class given is ADME, organism-based. The conditions noted are these: in vivo.
A short description of series [10]: AUCt in Sprague-Dawley rat at 5 mg/kg, po measured up to 24 hrs by LC-MS/MS analysis. It is filed as ADME, organism-based. On the set-up: time < 24 hr, dose 5 mg/kg, route oral. The conditions noted are these: in vivo.
Series [11] is described as follows: Mean residence time (0 to t) in Sprague-Dawley rat at 1 mg/kg, iv measured up to 24 hrs by LC-MS/MS analysis. The class given is ADME, organism-based. The conditions noted are these: in vivo.
Series [12] is described as follows: Oral bioavailability in Sprague-Dawley rat at 5 mg/kg measured up to 24 hrs by LC-MS/MS analysis. The conditions noted are these: in vivo. It is filed as ADME, organism-based.
Series [13] is described as follows: Half-life in Sprague-Dawley rat at 1 mg/kg, iv measured up to 24 hrs by LC-MS/MS analysis. It is filed as ADME, organism-based. Conditions: in vivo.
Series [14] in a line: Apparent volume of distribution in Sprague-Dawley rat at 5 mg/kg, po measured up to 24 hrs by LC-MS/MS analysis. The conditions noted are these: in vivo. The class given is ADME, organism-based.
Series [15] can be described thus: Cmax in Sprague-Dawley rat at 5 mg/kg, po measured up to 24 hrs by LC-MS/MS analysis. On the set-up: dose 5 mg/kg, route oral. The conditions noted are these: in vivo. The class given is ADME, organism-based.
The nature of series [16]: Apparent clearance in Sprague-Dawley rat at 5 mg/kg, po measured up to 24 hrs by LC-MS/MS analysis. The class given is ADME, organism-based. Conditions: in vivo, read-out: CL(app) (converted).
A short description of series [17]: AUC (0 to infinity) in Sprague-Dawley rat at 5 mg/kg, po measured up to 24 hrs by LC-MS/MS analysis. Conditions: in vivo. It is filed as ADME, organism-based. Set-up: dose 5 mg/kg, route oral, time infinity.
Series [18] can be described thus: Apparent clearance in Sprague-Dawley rat at 1 mg/kg, iv measured up to 24 hrs by LC-MS/MS analysis. The class given is ADME, organism-based. Conditions: in vivo, read-out: CL(app) (converted).
Series [19] can be described thus: in vitro. Conditions: human, liver microsomes.
The nature of series [20]: Cmax in Sprague-Dawley rat at 1 mg/kg, iv measured up to 24 hrs by LC-MS/MS analysis. On the set-up: dose 1 mg/kg, route intravenous. The class given is ADME, organism-based. Conditions: in vivo.

On to `CN1CCC(Nc2ccc(C(=O)Nc3cc(-c4ccc5c(c4)OCO5)n[nH]3)cc2)CC1`, for which the half-life – broadly, the time needed for the level to fall by half in the phase considered – at 0.25 h, 1 µM in “in vitro [1]” is 8.27 min; in the series “in vitro [19]”, 1.95 h. Besides, the CLH in series [2] was 0.0118 mL/min/kg; in series [4] it was 0.168 mL/min/kg. In addition, the Vd in series [3] is 18.2 L/kg. Also, the MRT last (usually the average time that molecules of a dose stay in the body) at 24 h in series [5] came to 5.9 h; in [11], 2.75 h. Besides, the half-life is 3.07 h in [6] and 1.96 h in series [13]. For the same compound, the AUC(0-t) (usually exposure summed from dosing to a finite time, without extrapolation to infinity) at 24 h amounted to 152 ng·h/mL in series [7] and 173 ng·h/mL in series [10]. In addition, the AUC(0-inf) (usually total exposure, with the tail of the curve extrapolated) in series [8] turned out to be 161 ng·h/mL; in series [17], 194 ng·h/mL. Besides, in [9], the Tmax (usually the time at which the peak concentration occurs) was 2.83 h. Moreover, the bioavailability (usually dose-corrected exposure relative to a reference, in per cent) in series [12] is 22.8%. Further, in series [14], the Vz is 105.05 L/kg. Also, the maximum concentration (Cmax) (in general, the highest concentration seen after dosing) stood at 27 ng/mL in series [15] and 205 ng/mL in [20]. Moreover, in series [16], the CL/F is 445 mL/min/kg. In series [18], the clearance is 110 mL/min/kg.
